According to paper PMC5775428, “Towards an experimental classification system for membrane active peptides” (Scientific Reports, 2018):
Where two headings read alike, the source gives them in different places.

Columns and labels:
[1] = system: Bacillus subtilis; conditions: Bacillus subtilis; for Minimum inhibitory concentration, Average: average of triplicates
Protocol: (§1) Antimicrobial activity was tested against three categories of human and plant pathogenic microorganisms: Gram-positive (Bacillus subtilis, Bacillus cereus, Staphylococcus aureus), Gram-negative (Escherichia coli, Pseudomonas aeruginosa, Erwinia carotovora, Pseudomonas syringae pv. tabaci, Xanthomonas campestris pv. citri) and yeasts (Candida albicans, Cryptococcus neoformans), as previously reported. […] The full list of peptide MICs was published in an accompanying paper, and is available in the current publication as supplementary dataset (Supplementary dataset 01).
(§2) The determination of the minimum inhibitory concentration (MIC) of peptides was performed as described in “Encrypted Antimicrobial Peptides from Plant Proteins”[7]. Briefly, MICs were determined following protocols M7-A10 and M27-A3 from Clinical & Laboratory Standards Institute (CLSI) for bacteria and yeasts, respectively. Different concentrations of IAPs (0.5 to 256 μM) were tested against several microorganisms in a final volume of 100 µL. Three biological repetitions, with 2 technical replicates each, were performed for each test, on polystyrene flat-bottom 96 wells microplates. The minimum inhibitory concentration (MIC) was defined as the concentration at which no cells were detected when visualized by optical microscopy. Please refer to the literature[7] for further details of the microbiological assays.

[2] = system: Candida albicans
Protocol: as §1, §2

[3] = system: Escherichia coli
Protocol: as §1, §2

[4] = system: Xanthomonas campestris; conditions: for Minimum inhibitory concentration, Average: average of triplicates
Protocol: as §1, §2

[5] = system: Erwinia carotovora
Protocol: as §1, §2

[6] = system: Pseudomonas aeruginosa
Protocol: as §1, §2

[7] = system: Staphylococcus aureus; conditions: Staphylococcus aureus; for Minimum inhibitory concentration, Average: average of triplicates
Protocol: as §1, §2

[8] = system: Bacillus cereus
Protocol: as §1, §2

[9] = system: Cryptococcus neoformans; conditions: Cryptococcus neoformans; for Minimum inhibitory concentration, Average: average of triplicates
Protocol: as §1, §2

[10] = system: Pseudomonas syringae pv. tabaci
Protocol: as §1, §2

[11] = Candida albicans, CLSI M27-A3, 0.5 to 256 μM tested, triplicate 1, also published in ref 7
[12] = Candida albicans, average of triplicates
[13] = Escherichia coli, CLSI M7-A10, triplicate 1
[14] = Escherichia coli, average of triplicates
[15] = Erwinia carotovora, CLSI M7-A10, triplicate 1
[16] = Erwinia carotovora, average of triplicates
[17] = Erwinia carotovora, triplicate 2
[18] = Erwinia carotovora, triplicate 3
[19] = Pseudomonas aeruginosa, CLSI M7-A10, triplicate 1
[20] = Pseudomonas aeruginosa, average of triplicates
[21] = Pseudomonas aeruginosa, triplicate 2
[22] = Pseudomonas aeruginosa, triplicate 3
[23] = Bacillus cereus, CLSI M7-A10, triplicate 1
[24] = Bacillus cereus, average of triplicates
[25] = Pseudomonas syringae pv. tabaci, CLSI M7-A10, triplicate 1
[26] = Pseudomonas syringae pv. tabaci, average of triplicates
[27] = Pseudomonas syringae pv. tabaci, triplicate 2
[28] = Pseudomonas syringae pv. tabaci, triplicate 3

Row | Sequence | Minimum inhibitory concentration ([1]; CLSI M7-A10, triplicate 1) | Minimum inhibitory concentration, Average [1] | Minimum inhibitory concentration ([1]; triplicate 2) | Minimum inhibitory concentration ([1]; triplicate 3) | Minimum inhibitory concentration [2, 11] | Minimum inhibitory concentration, Average [2, 12] | Minimum inhibitory concentration ([2]; Candida albicans, triplicate 2) | Minimum inhibitory concentration ([2]; Candida albicans, triplicate 3) | Minimum inhibitory concentration ([4]; CLSI M7-A10, triplicate 1) | Minimum inhibitory concentration, Average [4] | Minimum inhibitory concentration ([4]; triplicate 2) | Minimum inhibitory concentration ([4]; triplicate 3) | Minimum inhibitory concentration ([7]; CLSI M7-A10, triplicate 1) | Minimum inhibitory concentration, Average [7] | Minimum inhibitory concentration ([7]; triplicate 2) | Minimum inhibitory concentration ([7]; triplicate 3) | Minimum inhibitory concentration ([9]; CLSI M27-A3, triplicate 1) | Minimum inhibitory concentration, Average [9] | Minimum inhibitory concentration ([9]; triplicate 2) | Minimum inhibitory concentration ([9]; triplicate 3) | further results
1 | GAKLAKKQVRALGKFFSF [At03] | 8 µM | 8.0 µM | 8 µM | 8 µM | 128 µM | 128.0 µM | 128 µM | 128 µM | 32 µM | 32.0 µM | 32 µM | 32 µM | 512 µM | 512.0 µM | 512 µM | 512 µM | 64 µM | 64.0 µM | 64 µM | 64 µM | Minimum inhibitory concentration [3, 13]: 16 µM; Minimum inhibitory concentration, Average [3, 14]: 16.0 µM; Minimum inhibitory concentration ([3]; Escherichia coli, triplicate 2): 16 µM; Minimum inhibitory concentration ([3]; Escherichia coli, triplicate 3): 16 µM; Minimum inhibitory concentration [5, 15]: 32 µM; Minimum inhibitory concentration, Average [5, 16]: 32.0 µM; Minimum inhibitory concentration [5, 17]: 32 µM; Minimum inhibitory concentration [5, 18]: 32 µM; Minimum inhibitory concentration [6, 19]: 512 µM; Minimum inhibitory concentration, Average [6, 20]: 512.0 µM; Minimum inhibitory concentration [6, 21]: 512 µM; Minimum inhibitory concentration [6, 22]: 512 µM; Minimum inhibitory concentration [8, 23]: 512 µM; Minimum inhibitory concentration, Average [8, 24]: 512.0 µM; Minimum inhibitory concentration ([8]; Bacillus cereus, triplicate 2): 512 µM; Minimum inhibitory concentration ([8]; Bacillus cereus, triplicate 3): 512 µM; Minimum inhibitory concentration [10, 25]: 8 µM; Minimum inhibitory concentration, Average [10, 26]: 8.0 µM; Minimum inhibitory concentration [10, 27]: 8 µM; Minimum inhibitory concentration [10, 28]: 8 µM
2 | GFKDLLKGAAKALVKTVLF [Asc-8, Ascaphin 8, reference compound] | 1 µM | 1.0 µM | 1 µM | 1 µM | 8 µM | 8.0 µM | 8 µM | 8 µM | 2 µM | 2.0 µM | 2 µM | 2 µM | 2 µM | 2.0 µM | 2 µM | 2 µM | 4 µM | 4.0 µM | 4 µM | 4 µM | Minimum inhibitory concentration [3, 13]: 2 µM; Minimum inhibitory concentration, Average [3, 14]: 2.0 µM; Minimum inhibitory concentration ([3]; Escherichia coli, triplicate 2): 2 µM; Minimum inhibitory concentration ([3]; Escherichia coli, triplicate 3): 2 µM; Minimum inhibitory concentration [5, 15]: 2 µM; Minimum inhibitory concentration, Average [5, 16]: 3.3 µM; Minimum inhibitory concentration [5, 17]: 4 µM; Minimum inhibitory concentration [5, 18]: 4 µM; Minimum inhibitory concentration [6, 19]: 4 µM; Minimum inhibitory concentration, Average [6, 20]: 4.0 µM; Minimum inhibitory concentration [6, 21]: 4 µM; Minimum inhibitory concentration [6, 22]: 4 µM; Minimum inhibitory concentration [8, 23]: 4 µM; Minimum inhibitory concentration, Average [8, 24]: 4.0 µM; Minimum inhibitory concentration ([8]; Bacillus cereus, triplicate 2): 4 µM; Minimum inhibitory concentration ([8]; Bacillus cereus, triplicate 3): 4 µM; Minimum inhibitory concentration [10, 25]: 2 µM; Minimum inhibitory concentration, Average [10, 26]: 2.0 µM; Minimum inhibitory concentration [10, 27]: 2 µM; Minimum inhibitory concentration [10, 28]: 2 µM
3 | GSLHGFMYKYLKTLVLRLY [Zm01] | 8 µM | 8.0 µM | 8 µM | 8 µM | 4 µM | 6.7 µM | 8 µM | 8 µM | 16 µM | 16.0 µM | 16 µM | 16 µM | 16 µM | 16.0 µM | 16 µM | 16 µM | 4 µM | 4.0 µM | 4 µM | 4 µM | Minimum inhibitory concentration [3, 13]: 8 µM; Minimum inhibitory concentration, Average [3, 14]: 13.3 µM; Minimum inhibitory concentration ([3]; Escherichia coli, triplicate 2): 16 µM; Minimum inhibitory concentration ([3]; Escherichia coli, triplicate 3): 16 µM; Minimum inhibitory concentration [5, 15]: 16 µM; Minimum inhibitory concentration, Average [5, 16]: 16.0 µM; Minimum inhibitory concentration [5, 17]: 16 µM; Minimum inhibitory concentration [5, 18]: 16 µM; Minimum inhibitory concentration [6, 19]: 16 µM; Minimum inhibitory concentration, Average [6, 20]: 16.0 µM; Minimum inhibitory concentration [6, 21]: 16 µM; Minimum inhibitory concentration [6, 22]: 16 µM; Minimum inhibitory concentration [8, 23]: 64 µM; Minimum inhibitory concentration, Average [8, 24]: 44.7 µM; Minimum inhibitory concentration ([8]; Bacillus cereus, triplicate 2): 64 µM; Minimum inhibitory concentration [10, 25]: 32 µM; Minimum inhibitory concentration, Average [10, 26]: 32.0 µM; Minimum inhibitory concentration [10, 27]: 32 µM; Minimum inhibitory concentration [10, 28]: 32 µM
4 | GLYNFIKVLGRTVFGLYKQF [At04] | 256 µM | 256.0 µM | 256 µM | 256 µM |  |  |  |  | 512 µM | 512.0 µM | 512 µM | 512 µM | 16 µM | 16.0 µM | 16 µM | 16 µM | 64 µM | 64.0 µM | 64 µM | 64 µM | Minimum inhibitory concentration [2]: 512 µM; Minimum inhibitory concentration, Average [2]: 512.0 µM; Minimum inhibitory concentration [3]: 512 µM; Minimum inhibitory concentration, Average [3]: 512.0 µM; Minimum inhibitory concentration [5]: 512 µM; Minimum inhibitory concentration, Average [5]: 512.0 µM; Minimum inhibitory concentration [6]: 512 µM; Minimum inhibitory concentration, Average [6]: 512.0 µM; Minimum inhibitory concentration [8]: 512 µM; Minimum inhibitory concentration, Average [8]: 512.0 µM; Minimum inhibitory concentration [10]: 512 µM; Minimum inhibitory concentration, Average [10]: 512.0 µM
5 | GLLFKELQKLIRYQIFIGK [Tc10] | 16 µM | 16.0 µM | 16 µM | 16 µM | 64 µM | 64.0 µM | 64 µM | 64 µM | 128 µM | 128.0 µM | 128 µM | 128 µM | 512 µM | 512.0 µM | 512 µM | 512 µM | 64 µM | 64.0 µM | 64 µM | 64 µM | Minimum inhibitory concentration [3, 13]: 16 µM; Minimum inhibitory concentration, Average [3, 14]: 26.7 µM; Minimum inhibitory concentration ([3]; Escherichia coli, triplicate 2): 32 µM; Minimum inhibitory concentration ([3]; Escherichia coli, triplicate 3): 32 µM; Minimum inhibitory concentration [5, 15]: 512 µM; Minimum inhibitory concentration, Average [5, 16]: 512.0 µM; Minimum inhibitory concentration [5, 17]: 512 µM; Minimum inhibitory concentration [5, 18]: 512 µM; Minimum inhibitory concentration [6]: 128 µM; Minimum inhibitory concentration, Average [6]: 128.0 µM; Minimum inhibitory concentration [8, 23]: 512 µM; Minimum inhibitory concentration, Average [8, 24]: 512.0 µM; Minimum inhibitory concentration ([8]; Bacillus cereus, triplicate 2): 512 µM; Minimum inhibitory concentration ([8]; Bacillus cereus, triplicate 3): 512 µM; Minimum inhibitory concentration [10, 25]: 512 µM; Minimum inhibitory concentration, Average [10, 26]: 512.0 µM; Minimum inhibitory concentration [10, 27]: 512 µM; Minimum inhibitory concentration [10, 28]: 512 µM
